Square brackets hold non-standard residues; d marks the D form. βAla = NCCC(=O)O

One may read the IC50 as the concentration that inhibits the measured activity by half.

In assay [1] the test system is αV and β3 virus infected Sf9 cells. Briefly: Cell shape change studies of virus-infected Sf9 cells on vitronectin coated plates. The settings on record: result in words. The assay is classed as cell-based, insect. The text has this: Integrins determine and modulate the cell shape by acting as structural links between the extracellular matrix and the cytoskeleton (Schwartz et al. 1995, Ann. Rev. Cell Dev. Biol. 11, 549; Montgomery et al. 1994, Proc. Natl. Acad. Sci. USA 91, 8856). In later phases of baculovirus infection, Sf9/High Five cells are usually rounded and loosely attached (FIG. 3A), as were the cells infected with either of the αV or β3 expressing recombinant baculovirus alone or with the null recombinant virus (FIG. 3A). […] No shape change is observed in cells co-infected with αV(FL)+β3(SL) or αV(SL)+β3(SL). […] Correspondingly, cell shape change of αV and β3 virus infected Sf9 cells on vitronectin coated plates are inhibited when challenged with RGD peptides (Table 1).
Sf9 cells (1×10^6 cells/well) were allowed to adhere to six-well plates either virgin or coated with purified human plasma vitronectin (5 μg/ml in PBS; 2 hours) followed by blocking of non-specific sites (3% BSA (w/v) in PBS), then infected with various virus combinations. The cells were observed 48 hours post-infection for cell shape change.

The test system of assay [2] is αVβ3 receptor (placenta, full length recombinant, soluble recombinant). Put plainly: Ligand binding assay: biotinylated ligands on immobilized integrins. Conditions: full length and soluble recombinant αVβ3, compared with placental αVβ3; result in words. Further details: species or system human. Here is the method: The truncated and full length recombinant αVβ3 and placenta αVβ3 are immobilized and binding of biotinylated ligands is examined. Three purified RGD-containing ligands—vitronectin, fibrinogen and fibronectin—that are known to bind to αVβ3 are used. […] Vitronectin is used for testing specific interaction with the recombinant αVβ3. Biotinylated vitronectin and increasing concentrations of above-specified peptides or non-peptidic analogues are incubated in parallel with immobilized receptor.
Proteins in PBS were diluted with 5-fold concentrated ligation buffer [500 mM NaCl, 500 mM NaHCO3] to 1 mg/ml protein. Freshly prepared N-hydroxysuccinimidobiotin (Sigma) [1 mg/ml in DMSO] was added to 0.1 mg/ml and incubated for 2 h at 20° C. After dialysis [PBS, 0.025% NaN3], protein concentration was determined. The biotinylated proteins were stored at 4° C.
Ligand Binding assay Integrins were diluted to 1 μg/ml in coating buffer [150 mM NaCl, 1 mM CaCl2, 1 mM MgCl2, 10 μM MnCl2, 20 mM Tris-HCl; pH 7.4) and 100 μl were adsorbed overnight at 4° C. to 96-well microtitre plates. The plates were washed once with binding buffer [0.1% (w/v) BSA in coating buffer] and blocked with blocking buffer (coating buffer containing 3% (w/v) BSA) 2 h at 37° C. After rinsing with binding buffer, serially diluted biotinylated ligands were added. After incubation (3 h, 37° C.), unbound ligand was washed from the plate with binding buffer, and bound biotin was detected by incubation with antibiotin-alkaline-phosphatase conjugated antibody and detection of bound antibody with p-Nitrophenyl-phosphate (BIO-RAD) substrate.
Target sequence in this assay (P06756 31-987 limits assumed): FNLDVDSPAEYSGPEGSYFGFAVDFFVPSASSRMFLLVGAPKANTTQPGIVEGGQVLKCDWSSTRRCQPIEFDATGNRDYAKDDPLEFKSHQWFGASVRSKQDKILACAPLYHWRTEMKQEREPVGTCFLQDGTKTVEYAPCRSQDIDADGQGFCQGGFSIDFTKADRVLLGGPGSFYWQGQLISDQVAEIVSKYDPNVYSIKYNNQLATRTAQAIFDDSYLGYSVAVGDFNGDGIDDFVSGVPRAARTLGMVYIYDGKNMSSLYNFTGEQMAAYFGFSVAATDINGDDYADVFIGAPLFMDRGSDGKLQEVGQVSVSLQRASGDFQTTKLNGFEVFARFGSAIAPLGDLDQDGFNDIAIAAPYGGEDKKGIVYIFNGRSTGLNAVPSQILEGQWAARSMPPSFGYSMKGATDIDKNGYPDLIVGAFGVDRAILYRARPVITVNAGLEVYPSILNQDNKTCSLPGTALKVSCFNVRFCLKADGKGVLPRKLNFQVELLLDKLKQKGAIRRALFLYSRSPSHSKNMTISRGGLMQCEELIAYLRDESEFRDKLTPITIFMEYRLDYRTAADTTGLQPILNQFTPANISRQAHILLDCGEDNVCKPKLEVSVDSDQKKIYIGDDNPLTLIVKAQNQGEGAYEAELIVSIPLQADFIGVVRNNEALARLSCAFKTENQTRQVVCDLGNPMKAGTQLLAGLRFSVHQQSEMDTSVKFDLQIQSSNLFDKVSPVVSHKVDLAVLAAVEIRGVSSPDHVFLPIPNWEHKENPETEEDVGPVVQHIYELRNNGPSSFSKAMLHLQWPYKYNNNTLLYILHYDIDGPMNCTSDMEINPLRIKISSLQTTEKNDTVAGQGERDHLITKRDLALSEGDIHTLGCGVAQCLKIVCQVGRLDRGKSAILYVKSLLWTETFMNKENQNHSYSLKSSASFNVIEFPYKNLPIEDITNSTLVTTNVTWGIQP
Target sequence in this assay (P05106 27-718 limits assumed, further chain): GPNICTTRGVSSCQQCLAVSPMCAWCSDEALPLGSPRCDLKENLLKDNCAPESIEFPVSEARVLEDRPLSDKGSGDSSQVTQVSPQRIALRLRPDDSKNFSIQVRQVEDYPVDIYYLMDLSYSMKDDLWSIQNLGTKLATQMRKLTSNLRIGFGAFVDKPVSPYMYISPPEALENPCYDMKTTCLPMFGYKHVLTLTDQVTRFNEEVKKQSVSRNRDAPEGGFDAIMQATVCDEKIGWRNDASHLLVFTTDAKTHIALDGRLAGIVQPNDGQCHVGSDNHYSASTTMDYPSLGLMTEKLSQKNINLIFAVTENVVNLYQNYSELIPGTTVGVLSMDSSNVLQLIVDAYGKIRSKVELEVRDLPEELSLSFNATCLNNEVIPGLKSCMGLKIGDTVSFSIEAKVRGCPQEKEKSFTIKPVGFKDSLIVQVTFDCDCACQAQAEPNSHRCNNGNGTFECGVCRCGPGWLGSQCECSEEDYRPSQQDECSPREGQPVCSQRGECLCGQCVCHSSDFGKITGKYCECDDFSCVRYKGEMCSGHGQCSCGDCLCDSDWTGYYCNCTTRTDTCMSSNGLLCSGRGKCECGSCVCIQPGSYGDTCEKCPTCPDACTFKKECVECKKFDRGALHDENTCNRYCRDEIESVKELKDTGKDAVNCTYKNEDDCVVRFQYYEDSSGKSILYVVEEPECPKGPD

The subject of assay [3] is Sf9 cells expressing full length or truncated αV or β3. Briefly: Metabolic pulse labelling of proteins expressed in Sf9 cells. Conditions: tunicamycin 10 μM or 10 μg/ml for 16 hours before and during pulse labelling; SDS-PAGE. The assay is classed as cell-based, insect. The protocol: The cell extracts were resolved by SDS-PAGE under reducing conditions. The molecular mass in kDa of standard protein markers are indicated on the right. • (B) Sf9 cells infected with αV (FL) (lanes 1 and 2), αV(SL) (lane 3 and 4), β3 (FL) (lane 5 and 6) and β3(SL) (lane 7 and 8) were either treated with 10 μM Tunicamycin in DMSO (lanes 1, 3, 5 and 7) or with DMSO alone (lanes 2, 4, 6 and 8). The infected cells were metabolically pulse labelled as above. Standard protein markers are indicated on the right.
Similarly, Sf9 cells expressing full length β3 how two bands of approximately 90 kDa and 125 kDa (FIG. 2A, lane 4).
Metabolic labelling of Sf9 cells was performed as described (Summer and Smith 1987: A manual of methods for baculovirus vectors and insect cell procedures. Texas Agricultural Experiment Station Bulletin B-1555). Where indicated, tunicamycin (Sigma) was present at 10 μg/ml for 16 hours before and during pulse labelling. Cells were lysed with 100 μl of buffer [1% Nonidet® P-40, 1 mM CaCl2, 150 mM NaCl, 0.4 mM Pefabloc® (Boehringer Mann-heim), 10 μg/ml Leupeptin and E64 (Sigma), 10 mM Tris/HCl; pH 7.4; Nonidet P-40 is a detergent and Pefabloc is a protease inhibitor]. […]

Assay [4] deals with αVβ3 receptor (placenta, full length recombinant, soluble recombinant). Briefly: Competition assay: inhibition of biotinylated vitronectin binding to immobilized integrin. Further details: species or system human. The settings on record: biotinylated vitronectin 1 μg/ml, 3 h, 37° C.
Experimental: The truncated and full length recombinant αVβ3 and placenta αVβ3 are immobilized and binding of biotinylated ligands is examined. Three purified RGD-containing ligands—vitronectin, fibrinogen and fibronectin—that are known to bind to αVβ3 are used. […] Biotinylated vitronectin and increasing concentrations of above-specified peptides or non-peptidic analogues are incubated in parallel with immobilized receptor.
Integrins were immobilized as described above. Serially diluted cyclic peptides were added in parallel with biotinylated vitronectin (1 μg/ml). After 3 h incubation at 37° C., bound ligand was detected as described above. […]

As for “cyc(RGEfV) (cyclo(RGE[dF]V); SMILES CC(C)[C@@H]1NC(=O)[C@@H](Cc2ccccc2)NC(=O)[C@H](CCC(=O)O)NC(=O)CNC(=O)[C@H](CCCNC(=N)N)NC1=O) [control peptide where glutamate was substituted for aspartate]”, the “effect on cell shape change of αV and β3 virus infected Sf9 cells” value in assay [1] is “no effect”.
For “vitronectin: purified RGD-containing ligand from human plasma, biotinylated”, in assay [2], the “binding of biotinylated ligand to immobilized receptor” value is “bind both to the full length and soluble receptor preparations in a concentration dependent manner”.
Same read-out and setting: the result for fibrinogen reads “bind both to the full length and soluble receptor preparations in a concentration dependent manner”.
Consider tunicamycin, for which the “production of the slower migrating (glycosylated) band” value in assay [3] is on record as “inhibits the production of the slower migrating band”.
For `CC(C)[C@@H]1NC(=O)[C@@H](Cc2ccccc2)NC(=O)[C@H](CC(=O)O)NC(=O)CNC(=O)[C@H](CCCNC(=N)N)NC1=O` [cyc(RGDfV)], in assay [4], the half-maximal inhibitory concentration (IC50) lay within 1 to 5 nM.
fibronectin: the “binding of biotinylated ligand to immobilized receptor” value in assay [2] is “bind both to the full length and soluble receptor preparations in a concentration dependent manner”.
On to “cyc(RβADfV) (cyclo(R[βAla]D[dF]V); SMILES CC(C)[C@@H]1NC(=O)[C@@H](Cc2ccccc2)NC(=O)[C@H](CC(=O)O)NC(=O)CCNC(=O)[C@H](CCCNC(=N)N)NC1=O) [control peptide where β-alanine was substituted for glycine]”, for which, in assay [1], the “effect on cell shape change of αV and β3 virus infected Sf9 cells” value is given as “no effect”.

Values taken from patent publication US8067197B2, “Soluble recombinant αvβ3 adhesion receptor” (Merck Patent GmbH, priority 1996, dated 2011).
